Results published in patent US12203938B2, “Levetiracetam immunoassays” (ARK Diagnostics, Inc., priority 2008, dated 2025).

Tests used:
antibody #12019-P8 = test: Specificity / crossreactivity of the immunoassay with levetiracetam metabolite; format: binding, rabbit; conditions: for % Cross Reactivity: 100 × apparent concentration of levetiracetam / concentration of crossreactant
Description: Antibodies obtained using any of the disclosed techniques are screened or purified not only for their ability to react with levetiracetam, but for a low cross-reactivity with potential interfering substances. “Cross-reactivity” may be determined in a quantitative immunoassay by establishing a standard curve using known dilutions of the target analyte, levetiracetam. The standard curve is then used to calculate the apparent concentration of the interfering substance present in various known amounts in samples assayed under similar condition. The cross-reactivity can be calculated as the apparent concentration divided by the actual concentration multiplied by 100. A certain immunoassay for determining cross-reactivity is a homogeneous enzyme immunoassay using a wild type G6PDH as described in U.S. Pat. No. 3,817,837 or mutant G6PDH engineered to contain a cysteine per subunit as described in U.S. Pat. Nos. 6,033,890, 6,090,567 and 6,455,288. Furthermore, the cross-reactivity can be determined in the same type of immunoassay in which the antibody will ultimately be used.
(§1) The levetiracetam derivative antibodies and enzyme conjugates may be advantageously used in a homogeneous assay format to detect levetiracetam in samples. An enzyme immunoassay or ARK Assay, which is a homogeneous enzyme immunoassay experiment, was performed to test antibodies prepared as described in Example 22. The ARK Assay for levetiracetam was conducted using a liquid, ready-to-use, two-reagent kit. A clinical chemistry analyzer useful to set up the assay is HITACHI 917. The HITACHI 917 is an automated biochemistry analyzer used by medical laboratories to process biological fluid specimens, such as urine, cerebrospinal fluid, and most commonly, blood. Manufactured by Boehringer Mannheim, the HITACHI 917 is a commonly used routine chemical chemistry. Levetiracetam containing sample was incubated with antibody reagent followed by the addition of the enzyme conjugate reagent. The enzyme conjugate activity decreases upon binding to the antibody. […] The oxidation of G6P is coupled with the reduction of NAD to NADH, which was measured at 340 nm. The change in the absorbance at 340 nm was measured spectrophotometrically. The levetiracetam concentration in a specimen was measured in terms of G6PDH activity. The increase in the rate at 340 nm was due to the formation of NADH and is proportional to the enzyme conjugate activity. An assay calibration curve was generated using levetiracetam spiked into negative calibrator matrix. The assay rate increases with increasing the concentration of drug in the sample.
The major metabolic pathway of levetiracetam (24% of dose) is an enzymatic hydrolysis of the acetamide group. The metabolites have no known pharmacological activity and are renally excreted. To human serum negative for levetiracetam was added levetiracetam dissolved in methanol to achieve a concentration of concentration of 30 μg/mL of levetiracetam (FIG. 1(1)).
To a second sample was added 2-pyrrolidone-N-butyric acid dissolved in methanol to achieve a concentration of 150.0 μg/mL 2-pyrrolidone-N-butyric acid (FIG. 1(2)). To a third sample was added 30 μg/mL of levetiracetam plus 406.4 μg/mL 2-pyrrolidone-N-butyric acid (FIG. 1(2)). The samples were assayed on the HITACHI 917. The levetiracetam metabolite, 2-pyrrolidone-N-butyric acid was tested in the immunoassay for potential crossreactivity with Enzyme Conjugate Reagent #110607-D63-E containing conjugate (44-G6PDH) and Antibody Reagent #11341P4-6-Ab containing antibody #12019-P8.

[1] = tested on: rabbit polyclonal antibody #12019-P8; test: Homogeneous enzyme immunoassay (ARK Assay) calibration curve on HITACHI 917, conjugate (44-G6PDH); format: binding
Experimental: Rabbit polyclonal antibody #12019-P8 was used to measure a substantial change in enzyme activity, generate a calibration curve, and evaluate assay precision, accuracy and specificity. The antibody was added into the antibody diluent to prepare the antibody reagent. The antibody reagent consists of antibody as prepared above, buffer, stabilizers, preservatives, and the substrates for the enzyme conjugate nicotinamide adenine dinucleotide (NAM and glucose-6-phosphate. Enzyme conjugate comprising compound (44-G6PDH) G6PDH was added into the conjugate reagent to prepare the enzyme conjugate reagent. The enzyme conjugate reagent comprises the conjugate, buffer, stabilizers and preservatives. Enzyme conjugate (44-G6PDH) was used with rabbit polyclonal antibody #12019-P8 in examples below. This technique is generally applicable to produce polyclonal antibodies to levetiracetam derivatives and assess their utility.
as §1
Levetiracetam was dissolved in methanol to give a stock solution of 1000 μg/mL. Pooled human serum was aliquoted in 10 mL portions. Levetiracetam stock solution was added to the aliquots of human serum in preparing a series of known concentrations of levetiracetam calibrators ranging from 0 to 100 μg/mL. Similarly, Quality Control samples were prepared (15.0, 35.0 and 75.0 μg/mL). The antibody/substrate reagent #11341P4-6-Ab containing antibody ##12019-P8 was assayed with enzyme reagent #110607-D63-E containing conjugate (44-G6PDH). Calibration curves were generated on the HITACHI 917 automated clinical chemistry analyzer, as described in Example 23 by assaying each level in duplicate.

[2] = in vivo; cited from earlier work

Reaction Rate (mA/min) Average of Duplicates ([1]; levetiracetam calibrator 5.0 μg/mL in pooled human serum) [mA/min] | Reaction Rate (mA/min) Average of Duplicates ([1]; levetiracetam calibrator 10.0 μg/mL in pooled human serum) [mA/min] | Reaction Rate (mA/min) Average of Duplicates ([1]; levetiracetam calibrator 25.0 μg/mL in pooled human serum) [mA/min] | Reaction Rate (mA/min) Average of Duplicates ([1]; levetiracetam calibrator 50.0 μg/mL in pooled human serum) [mA/min] | Reaction Rate (mA/min) Average of Duplicates ([1]; levetiracetam calibrator 100.0 μg/mL in pooled human serum) [mA/min] | Compound | Levetiracetam Result (antibody #12019-P8; Concentration Tested 150.0 μg/mL in human serum) [µg/mL] | % Cross Reactivity (antibody #12019-P8; Concentration Tested 150.0 μg/mL) [%] | Levetiracetam Result (antibody #12019-P8; Concentration Tested 406.4 μg/mL in human serum) [µg/mL] | % Cross Reactivity (antibody #12019-P8; Concentration Tested 406.4 μg/mL) [%] | Crossreactivity of antibody #12019-P8 (in words) (antibody #12019-P8; conjugate (44-G6PDH), HITACHI 917) | Levetiracetam Result (antibody #12019-P8; Concentration Tested 30.0 μg/mL in human serum) [µg/mL] | % Cross Reactivity (antibody #12019-P8; Concentration Tested 30.0 μg/mL) [%] | Major metabolic pathway: enzymatic hydrolysis of the acetamide group [2]
– | – | – | – | – | 2-pyrrolidone-N-butyric acid | 0 | 0 | 0 | 0 | does not crossreact | – | – | –
547.4 | 561.2 | 586.9 | 607.5 | 626.0 | CC[C@@H](C(N)=O)N1CCCC1=O (single isomer, unassigned) [Levetiracetam] | – | – | – | – | – | 29.9 | 100 | 24 % of dose
